How the values were obtained:
[1] = Contact angle of polycarbonate extrusion sheets (sessile drop, water); format: physicochemical; conditions: 5% Tinuvin 1577 alone in polycarbonate extrusion sheet
Experimental: (§1) A polycarbonate powder [Makrolon 3108 FBL (RTM) from Bayer] is dried in a vacuum oven for eight hours at 120° C. Appropriate amounts of each compound of the formula I is added to the dried polycarbonate powder to obtain formulations containing up to 10% by weight of the compound of the formula I. The formulations are mixed in a Grindo Mix GM 200 and compounded to pellets in a twin-screw extruder (Haake DS16-L/D25 from Thermo Electron Corporation) and further extruded to sheets with a width of 110 mm and thickness of 0.2 mm using a single-screw extruder equipped with a flat die (Collin CR-136/350). The processing temperature is around 280° C. All produced sheets have a transparent visual appearance.
The surface properties were evaluated by measuring the contact angle of the polycarbonate sheets described in Example 16 with a Dataphysics OCA 30 contact angle device, using the sessile drop method and water as measuring liquid.

[2] = Contact angle of extrusion tapes, compounds as bulk material or additive (sessile drop, water); format: physicochemical; conditions: 5% Tinuvin 1577 in 95% Makrolon 3108 FBL, extrusion tape
Experimental: Appropriate amounts of each compound of the formula I are dried in a vacuum oven for eight hours at 120° C. They are extruded in a twin-screw extruder (MiniLab extruder from Thermo Electron Corporation) equipped with a flat die. In this way, tapes are produced with a width of 5 mm and a thickness of around 0.5 mm. The processing temperature is around 280° C. All produced tapes have a transparent visual appearance. The contact angle of the produced tapes are measured with a Dataphysics OCA 30 contact angle device, using the sessile drop method and water as measuring liquid.

[3] = tested on: Staphylococcus aureus ATCC 6538; assay: Adhesion of microbes onto polycarbonate extrusion sheets (microtiterplate immunological assay); format: cell-based; conditions: 5% Tinuvin 1577 alone in polycarbonate sheet; residual adhesion relative to control = 100%; 60 min incubation
Experimental: as §1
In order to measure the reduced adhesion of microbes onto polymer surfaces the following testing procedure is applied:
The test system is microtiterplate based and is conducted according to the method described in Nature Medicine Vol. 6, No. 8, 1053-1056. Samples equipped with active compounds and untreated control samples are prepared to obtain a same sample size of max. 7×4 mm. […] The microbial cells adhering to the pieces are detected in an immunological assay using specific antibodies against the test strain, which are then detected […]. […]

CCCCCCOc1ccc(-c2nc(-c3ccccc3)nc(-c3ccccc3)n2)c(O)c1 [Tinuvin 1577]
Contact angle (°) [1]: 86 °
Contact angle (°) [2]: 86 °
Adhesion of Staphylococcus aureus ATCC 6538 on polycarbonate in % [3]: 104%

— patent US8013047B2, “Oligo- and poly-carbonates terminated with silicon containing groups as surface modifiers” (priority 2005, dated 2011)
